The values below come from PMC4983742 (ACS Medicinal Chemistry Letters, 2016).

This assay addresses T1, androgen receptor (AR) (Homo sapiens, UniProt P10275, T878A).
T1 sequence (P10275 1-920 T878A): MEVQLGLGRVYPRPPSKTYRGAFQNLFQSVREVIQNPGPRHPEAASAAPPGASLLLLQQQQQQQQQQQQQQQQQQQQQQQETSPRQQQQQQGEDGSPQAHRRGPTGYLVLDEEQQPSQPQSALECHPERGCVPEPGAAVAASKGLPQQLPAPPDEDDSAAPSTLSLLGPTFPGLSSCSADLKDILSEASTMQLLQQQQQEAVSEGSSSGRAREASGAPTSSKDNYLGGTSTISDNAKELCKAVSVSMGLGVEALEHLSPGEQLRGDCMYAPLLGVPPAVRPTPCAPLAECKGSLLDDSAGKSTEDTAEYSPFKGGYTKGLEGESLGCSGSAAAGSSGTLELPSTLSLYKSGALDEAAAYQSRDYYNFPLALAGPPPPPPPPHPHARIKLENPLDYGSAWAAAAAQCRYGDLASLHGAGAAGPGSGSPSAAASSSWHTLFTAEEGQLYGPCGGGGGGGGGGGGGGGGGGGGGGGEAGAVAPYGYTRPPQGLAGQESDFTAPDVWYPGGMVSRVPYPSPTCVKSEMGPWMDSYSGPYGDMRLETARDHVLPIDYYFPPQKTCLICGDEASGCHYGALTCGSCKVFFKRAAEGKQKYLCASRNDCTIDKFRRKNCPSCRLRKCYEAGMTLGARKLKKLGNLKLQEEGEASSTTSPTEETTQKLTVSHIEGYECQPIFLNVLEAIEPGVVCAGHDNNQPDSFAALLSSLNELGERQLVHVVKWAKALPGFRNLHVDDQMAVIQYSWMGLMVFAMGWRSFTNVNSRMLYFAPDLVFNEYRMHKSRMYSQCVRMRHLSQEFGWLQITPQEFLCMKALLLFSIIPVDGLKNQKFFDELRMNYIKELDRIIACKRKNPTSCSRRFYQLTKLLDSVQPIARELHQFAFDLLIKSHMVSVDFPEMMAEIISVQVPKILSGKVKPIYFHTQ
Format: cell-based. To be noted: for activity in the PSA luciferase assay, in words: C4-2-PSA-rl cells, 1 nM R1881.

Regarding `Cc1ccccc1N1CCN(C(=O)[C@H]2C[C@@H]2c2ccccc2)CC1` (relative stereo) [compound 16], the “activity in the PSA luciferase assay, in words” value (“activity … in words” for short) was “essentially inactive”. The same measure, in the same setting: with `Cc1noc(C)c1CSCC(=O)N1CCN(c2ccccc2)CC1` [5a] the entry was “deleted activity”. The same measure, in the same setting: with `Cc1cccc(N2CCN(C(=O)CSCc3c(C)noc3C)CC2)c1` [5c] the entry was “loss of activity”.

With `Cc1ccc(N2CCN(C(=O)CSCc3c(C)noc3C)CC2)cc1` [5d], the “activity … in words” value is reported as “loss of activity”. Same read-out and setting: for `COc1ccccc1N1CCN(C(=O)CSCc2c(C)noc2C)CC1` [5h] the value was “complete loss of activity”; for `Cc1ccccc1N1CCN(C(=O)COCc2c(C)noc2C)CC1` [18a], “abolished activity”; for `Cc1ccccc1N1CCN(C(=O)CN(C)Cc2ccccc2)CC1` [18b], “abolished activity”. Still for that read-out and setting: for `Cc1ccccc1N1CCN(C(=O)NCSCc2c(C)noc2C)CC1` [20a] the value was “inactive”; for `Cc1ccccc1N1CCC(OC(=O)NCSCc2c(C)noc2C)CC1` [20b], “inactive”. Consider `Cc1ccc(Cl)cc1N1CCN(C(=O)[C@@H]2C[C@@H]2c2ccc(F)cc2)CC1` [(1R,2S)-27], for which the “fold less potent than enantiomer (1S,2R)-27” value was “ca. 10 fold”.

On to `Cc1ccc(Cl)cc1N1CCN(C(=O)[C@H]2C[C@H]2c2ccc(F)cc2)CC1` [(1S,2R)-27], for which the “activity … in words” value is given as “substantially equipotent to the commercial AR antagonist, enzalutamide”.

For the compound `Cc1ccccc1N1CCN(CCSCc2c(C)noc2C)CC1` [compound 6], the “fold increase in activity relative to amide 5b” value is 1.3 fold. As to `Cc1ccccc1N1CCN(C(=O)CSc2ccccc2)CC1` [compound 9], the “activity … in words” value is recorded as “abolished activity”.

In the case of `Cc1ccccc1N1CCN(C(=O)C#Cc2ccccc2)CC1` [compound 10], the “activity … in words” value is “essentially inactive”.

On to `Cc1ccccc1N1CCN(C(=O)/C=C/c2ccccc2)CC1` [compound 11], for which the “activity … in words” value is “essentially inactive”. Still for that read-out and setting: for `Cc1ccccc1N1CCN(C(=O)C[S+]([O-])Cc2c(C)noc2C)CC1` (stereo not shown) [compound 12] the value was “inactive”.
